# Assay results as given in patent US8507473B2, “3H-imidazo[4,5-b]pyridin-5-ol derivatives useful in the treatment of GPR81 receptor disorders” (Arena Pharmaceuticals, Inc., priority 2008, dated 2013).
# Tests used:
# GPR81 [1] = target: T1, GPR81 (Homo sapiens, UniProt Q9BXC0); experiment: HTRF assay for direct cAMP measurement; type: cell-based; conditions: CHO-K1 cells stably transfected with GPR81, forskolin-stimulated cAMP
# T1 construct: expressed in transfected cells; host or cells: CHO-K1 (ATCC CCL-61), recombinant, stably transfected
# T1 sequence (Q9BXC0 whole entry): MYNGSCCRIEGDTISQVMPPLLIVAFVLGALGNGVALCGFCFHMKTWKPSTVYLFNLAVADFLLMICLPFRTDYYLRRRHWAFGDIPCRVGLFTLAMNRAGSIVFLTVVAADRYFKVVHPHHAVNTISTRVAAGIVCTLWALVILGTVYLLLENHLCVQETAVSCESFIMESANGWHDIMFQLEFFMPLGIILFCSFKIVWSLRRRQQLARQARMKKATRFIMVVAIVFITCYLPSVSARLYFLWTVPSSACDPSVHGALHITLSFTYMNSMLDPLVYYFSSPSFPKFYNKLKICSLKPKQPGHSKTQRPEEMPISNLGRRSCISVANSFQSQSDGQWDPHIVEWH
# Source text: Compounds were screened for agonists of GPR81 (e.g., human GPR81) using an HTRF® assay for direct cAMP measurement (Gabriel et al, ASSAY and Drug Development Technologies, 1:291-303, 2003) and recombinant CHO-K1 cells stably transfected with GPR81. CHO-K1 cells were obtained from ATCC® (Manassas, Va.; Catalog #CCL-61). An agonist of GPR81 was detected in the HTRF® assay for direct cAMP measurement as a compound which decreased cAMP concentration. The HTRF® assay also was used to determine EC50 values for GPR81 agonists.
# The HTRF® assay kit was purchased from Cisbio-US, Inc. (Bedford, Mass.; Catalog #62AM4PEC). The HTRF® assay supported by the kit is a competitive immunoassay between endogenous cAMP produced by the CHO-K1 cells and tracer cAMP labeled with the dye d2. The tracer binding is visualized by a monoclonal anti-cAMP antibody labeled with Cryptate. The specific signal (i.e., fluorescence resonance energy transfer, FRET) is inversely proportional to the concentration of unlabeled cAMP in the standard or sample.
# The fluorescence ratio of the samples (test compound or compound buffer) was calculated and used to deduce respective cAMP concentrations by reference to the cAMP standard curve.
# The HTRF® assay was carried out using a two-step protocol essentially according to the kit manufacturer's instructions, in 20 μL total volume per well in 384-well plate format (ProxiPlates; PerkinElmer, Fremont, Calif.; catalog #6008280). To each of the experimental wells was transferred 1000 recombinant CHO-K1 cells in 5 μL phosphate buffered saline containing calcium chloride and magnesium chloride (“PBS+”; Invitrogen, Carlsbad, Calif.; catalog #14040) supplemented with IBMX (100 μM) (phosphodiesterase inhibitors; Sigma-Aldrich, St. Louis, Mo.; catalog #I-5879), followed by test compound in 5 μL compound buffer (PBS+ supplemented with 10 μM forskolin (Sigma-Aldrich, St. Louis, Mo.; catalog #F-6886)). The plate was then incubated at room temperature for 1 hour. To each well was then added 5 μl cAMP-d2 conjugate in lysis buffer and 5 μL Cryptate conjugate in lysis buffer according to the kit manufacturer's instructions. The plate was then further incubated at room temperature for 1 hour, after which the assay plate was read.
# HTRF® readout was accomplished using a PHERAstar (BMG LABTECH Inc., Durham, N.C.) or EnVision™ (PerkinElmer, Fremont Calif.) microplate reader.
# Male Sprague Dawley rats = experiment: NEFA assay, circulating free fatty acids in rats; type: in vivo, rat; conditions: after injection of 100 mpk, FIG. 6
# Description: (§1) The supplied standard was diluted with DI water to 1, 0.5, 0.25, 0.125, 0.0625, 0.03125. A water blank was also prepared. Serum samples and standards were dispensed (5 μl/well) to wells of a 96-well plate. Reagent A (100 μL) was added to each well and incubated for 10 minutes at 37° C. Reagent B (200 μL) was then added to each well and incubated for another 10 minutes at 37° C. After equilibration for 5 minutes at room temperature (about 25° C.), the abroad sorbance was measured on a plate reader at 550 nm.
# Male Sprague Dawley rats (10-12 weeks old) were obtained from Charles River Labroad s pre-cannulated with right jugular catheters for sample collection. Rats were food deprived overnight (by removing food pellets from the cage) for approximately 16 hours with ad libitum access to water. Canulae were flushed with saline to remove heparin and to clear the catheter line 30 minutes prior to the first (basal) sample collection. Basal samples were collected in a staggered dose manner (e.g. vehicle, high dose, low dose, low dose, high dose, and vehicle). Rats were injected per oral (PO), 2 mL/kg with 5% HPBCD (Hydroxypropyl-β-cyclodextrin) or with drug in 5% HPBCD. Blood (500-700 μl) was drawn via catheter at 10, 20, 40, 60, 120, and 240 minutes post dosing, and saline (about 200 μl) was infused into the catheter to ensure patency. […]
# Male C57/B16 mice = experiment: NEFA assay, circulating free fatty acids in mice; type: in vivo, mouse; conditions: FIG. 7
# Description: as §1
# Male C57/B16 mice (8-10 weeks old; about 23 g) were food deprived (by removing food pellets from the cage) for 5 hours with ad libitum access to water. Animals were then dosed with vehicle (5% HPBCD) or drug via intraperitoneal (IP) injection at the desired concentration in a volume of 10 mL/kg. After 30 minutes, mice were euthanized via CO2 asphyxiation and about 300 μl of blood were immediately collected by cardiac puncture. The blood was transferred to an Eppendorf tube and capped on ice. The blood was then centrifuged on a table top centrifuge (4000 rpm at 4° C. for 10 minutes). Serum was collected in a new microfuge tube and re-centrifuged (4000 rpm at 4° C. for 10 minutes). Serum samples were dispensed (5 μl/well) to wells of a 96-well plate.
# [2] = test system: rat epididymal adipocytes; experiment: Glycerol assay (rat adipocyte lipolysis); type: cell-based; conditions: rat epididymal adipocytes in vitro, FIG. 5
# Description: Free glycerol was determined using a free glycerol reagent, Reagent A (Sigma). Adipocyte media (10 μL) was removed and replated in a flat-bottom 96-well plate. Reagent A (100 μL) was then added to each well. After 10-15 minutes, abroad sorbance was read at OD540 on a Spectramax 340PC microplate reader (Molecular Devices). The amount of glycerol released was calculated based on regression analysis of known glycerol concentrations using a glycerol standard (Sigma).
# Epididymal fat pads were surgically removed from CO2-anesthetized male Sprague Dawley rats, weighing 300-500 g. The adipose tissue was minced and suspended in Krebroad s-Ringer bicarbonate HEPES buffer (containing […], […] (monobasic), […] MgSO4.7H2O, […] CaCl2, 1 mM NaHCO3, 3 mM HEPES, 200 nM adenosine, and 1% BSA) with 2.5 mg of collagenase (Sigma) per gram of tissue. The suspension was incubated in an orbital shaker at 37° C. for 40 minutes with constant agitation. Cells were then filtered through a 500 μm mesh filter. For each filter used, 10 mL of buffer was added to the cell suspension to aid with the filtration. Cells were spun at 1000 rpm for 1 minute. A glass Pasteur pipette was then used to remove all buffer remaining below the floating adipocyte layer. Approximately 30 mL of new buffer was then added to the adipocytes and they were incubated for 5 minutes at 37° C. […]
# GPR81 [3] = target: T1, GPR81; experiment: GPR81 [35S]GTPγS binding assay; type: biochemical; conditions: membranes of CHO-K1 cells stably transfected with GPR81
# Description: Compounds were screened for agonism of GPR81 (e.g. human GPR81) using a GTPγS binding assay and CHO-K1 cells stably transfected with GPR81.
# GPR81 stably transfected CHO-K1 cells were grown in F-12 Kaighn's Modified Cell Culture Medium with 10% FBS, 2 mM L-glutamine, 1 mM sodium pyruvate and 400 μg/ml G418. For 15 cm^2 plates, cells were rinsed with 5 mL cold PBS and aspirated. Cold membrane scrape buffer (20 mM HEPES, 10 mM EDTA, pH 7.4) was added and cells were scraped off the plate and transferred to a 50 mL centrifuge tube. Cells were spun at 20,000 rpm for 17 minutes at 4° C. The supernatant was aspirated and the pellet was re-suspended in cold membrane wash buffer (30 mL, 20 mM HEPES, 0.1 mM EDTA, pH 7.4). Cells were spun at 20,000 rpm for 17 minutes at 4° C. The supernatant was aspirated away from the membrane pellet. The pellet may be frozen at −80° C. for later use or may be used immediately.
# The membrane pellet was thawed (if frozen) on ice and homogenized briefly until in suspension using a polytron mixer (POLYTRON PT3100, probe PT-DA 3007/2 at setting of 7000 rpm). The membrane protein concentration was determined using a Bradford assay. The membrane protein was diluted to a protein concentration of 0.20 mg/mL in binding buffer (20 mM HEPES, pH 7.4, 100 mM NaCl, 10 mM MgCl2) for a final assay concentration of 5 μg/well. Compound plates to be screened were thawed (daughter plates with 5 μL compound@2 mM in 100% DMSO). The 2 mM compounds were diluted 1:50 with 245 μL GDP buffer (binding buffer plus GDP, Sigma-Aldrich Catalog #87127, ranging from 0.4 to 40 μM, made fresh before assay) to 40 μM in 2% DMSO. Compounds in GDP buffer (25 were added per well of a Scintistrip plate (Wallac Catalog #1450-501) and then 50 μL of membrane preparation (0.4 mg protein/mL) was added to each well. The plates were then covered with foil and incubated for 5-10 minutes at room temperature. Subsequently, 25 μL of diluted [^35S]GTPγS (Amersham Biosciences Catalog #SJ1320, about 2000 Ci/mmol (made by adding 5 μL [^35S]GTPγS stock into 10 ml binding buffer) was added to the wells. The plates were covered with foil and incubated on a shaker (Lab-Line model #1314, at setting of 4) for 60 minutes at room temperature. The assay was stopped by sealing the plates with plate covers and spinning the plates at 4000 rpm for 15 minutes at 22° C. The supernatant of each well was apirated using an eight-channel manifold and the plate was read in a Wallac Microbeta counter 1450 set up to detect ^35S.
EC50 (GPR81 [1]) [nM],EC50 (GPR81 [3]) [nM],SMILES,also measured
2330,–,"Cc1c(F)cccc1-n1c(N)nc2ccc(O)nc21 [Compound 64, 2-Amino-3-(3-Fluoro-2-methylphenyl)-3H-imidazo[4,5-b]pyridin-5-ol]",–
–,30.3,"Oc1ccc2ncn(C34CC5CC(CC(C5)C3)C4)c2n1 [Compound 114, 3-(Adamant-1-yl)-3H-imidazo[4,5-b]pyridin-5-ol]",–
–,75.3,"Oc1ccc2nc(Cl)n(C3CCCCC3)c2n1 [Compound 127, 2-Chloro-3-cyclohexyl-3H-imidazo[4,5-b]pyridin-5-ol]",–
–,81.5,"Oc1ccc2nc(Cl)n(-c3ccccc3C3CC3)c2n1 [Compound 133, 2-Chloro-3-(2-Cyclopropylphenyl)-3H-imidazo[4,5-b]pyridin-5-ol]",–

# Continued, compound first:
SMILES,EC50 (GPR81 [1]) [nM],EC50 (GPR81 [3]) [nM],also measured
"Nc1nc2ccc(O)nc2n1-c1ccccc1 [Compound 9, 2-Amino-3-phenyl-3H-imidazo[4,5-b]pyridin-5-ol]",1050,–,–
"Oc1ccc2ncn(-c3ccccc3Cl)c2n1 [Compound 25, 3-(2-Chlorophenyl)-3H-imidazo[4,5-b]pyridin-5-ol]",–,–,circulating free fatty acids (Male Sprague Dawley rats): significant decrease of circulating free fatty acids; circulating free fatty acids (Male C57/B16 mice): significant decrease of circulating free fatty acids; inhibition of lipolysis [2]: inhibition of lipolysis
"Oc1ccc2ncn(-c3ccccc3C(F)(F)F)c2n1 [Compound 28, 3-(2-(Trifluoromethyl)phenyl)-3H-imidazo[4,5-b]pyridin-5-ol]",–,–,circulating free fatty acids (Male C57/B16 mice): significant decrease of circulating free fatty acids
"Oc1ccc2ncn(C3CCCCCC3)c2n1 [Compound 48, 3-Cycloheptyl-3H-imidazo[4,5-b]pyridin-5-ol]",350,–,–
"Oc1ccc2ncn(-c3cccc(Cl)c3F)c2n1 [Compound 50, 3-(3-Chloro-2-fluorophenyl)-3H-imidazo[4,5-b]pyridin-5-ol]",2760,–,–
"Oc1ccc2ncn(-c3ccc(Cl)cc3C(F)(F)F)c2n1 [Compound 56, 3-(4-Chloro-2-(trifluoromethyl)phenyl)-3H-imidazo[4,5-b]pyridin-5-ol]",–,1390,–
